The target in test [1] is T1, Rat recombinant PDE10A (rPDE10A2) (Rattus norvegicus, UniProt Q9QYJ6).
T1 construct: inferred from the Ni metal chelate purification; made in house; host or cells: Sf9 insect cells (baculovirus)
T1 sequence (Q9QYJ6 1-794): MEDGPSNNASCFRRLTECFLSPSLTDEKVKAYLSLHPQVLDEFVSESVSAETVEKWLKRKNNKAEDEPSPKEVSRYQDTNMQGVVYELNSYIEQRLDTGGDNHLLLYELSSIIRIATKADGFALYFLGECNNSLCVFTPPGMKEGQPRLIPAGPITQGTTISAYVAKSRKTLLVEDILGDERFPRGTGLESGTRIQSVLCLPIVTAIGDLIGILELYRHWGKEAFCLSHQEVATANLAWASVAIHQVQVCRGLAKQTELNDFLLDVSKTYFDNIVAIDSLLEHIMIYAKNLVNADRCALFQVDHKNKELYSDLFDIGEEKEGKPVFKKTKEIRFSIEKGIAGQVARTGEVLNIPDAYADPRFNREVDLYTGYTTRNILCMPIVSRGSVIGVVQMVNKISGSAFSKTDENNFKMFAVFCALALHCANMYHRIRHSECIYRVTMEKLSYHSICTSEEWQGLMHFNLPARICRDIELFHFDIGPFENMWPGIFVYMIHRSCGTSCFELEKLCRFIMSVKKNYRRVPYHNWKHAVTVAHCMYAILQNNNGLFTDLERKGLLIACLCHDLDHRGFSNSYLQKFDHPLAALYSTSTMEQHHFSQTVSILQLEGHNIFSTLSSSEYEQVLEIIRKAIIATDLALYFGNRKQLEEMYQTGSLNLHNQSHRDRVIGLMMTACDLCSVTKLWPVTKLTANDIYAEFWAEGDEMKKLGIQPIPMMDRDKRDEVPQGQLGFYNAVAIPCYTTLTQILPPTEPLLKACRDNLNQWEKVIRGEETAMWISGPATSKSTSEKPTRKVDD
As to the kind of experiment: In vitro assay PDE10A (SPA, 3H-cAMP). Type of test: biochemical. To be noted: pIC50 corresponds to the −log IC50 expressed in mol/L; read-out: PDE10A2 pIC50 (converted). How it is done: Rat recombinant PDE10A (rPDE10A2) was expressed in Sf9 cells using a recombinant rPDE10A baculovirus construct. Cells were harvested after 48 h of infection and the rPDE10A protein was purified by metal chelate chromatography on Ni-sepharose 6FF. Tested compounds were dissolved and diluted in 100% DMSO to a concentration 100 fold of the final concentration in the assay. Compound dilutions (0.4 μl) were added in 384 well plates to 20 μl of incubation buffer (50 mM Tris pH 7.8, 8.3 mM MgCl2, 1.7 mM EGTA). 10 μl of rPDE10A enzyme in incubation buffer was added and the reaction was started by addition of 10 μl substrate to a final concentration of 60 nM cAMP and 0.008 μCi ^3H-cAMP. The reaction was incubated for 60 minutes at room temperature. […] After sedimentation of the beads during 30 minutes the radioactivity was measured in a Perkin Elmer Topcount scintillation counter and results were expressed as cpm. For blanc values the enzyme was omitted from the reaction and replaced by incubation buffer. Control values were obtained by addition of a final concentration of 1% DMSO instead of compound. The same assay principle is applied for the measurement of the affinity of the compound for other members of the PDE family with appropriate modifications in incubation buffer, substrate concentration, incubation time and stop solution.

Test [2] has as its system apomorphine-induced stereotypy in rats. As to the kind of experiment: Apomorphine-induced stereotypy in rats (APO). Type of test: in vivo. The following applies: Rattus norvegicus, n.d.: found not active at threshold dose 2.5 mg/kg or 10 mg/kg (a). As for the experimental part:
Apomorphine (1.0 mg/kg, i.v.)-induced stereotypy (compulsive sniffing, licking, chewing) was scored every 5 min over the first hour after injection of apomorphine, following a 1 hour interval pre-treatment with the test compound. The score system was: (3) pronounced, (2) moderate, (1) slight, and (0) absent.

Where [3] appears, read: po, * not soluble, tested orally as a suspension.

Here are results for 24 molecules from patent US20120220581A1, “IMIDAZO[1,2-b]PYRIDAZINE DERIVATIVES AND THEIR USE AS PDE10 INHIBITORS” (Janssen-Cilag, S.A., priority 2009, published 2012).

A word on the ED50: it is the midpoint of the dose-response relation. A high value points to weaker potency. Take `COCCc1cc(-c2c(C)nc3c(N4CCOCC4)ccnn23)ccn1` [compound 26, 3-[2-(2-methoxyethyl)-4-pyridinyl]-2-methyl-8-(4-morpholinyl)-imidazo[1,2-b]pyridazine]: in test [1], the IC50 is 30.9 nM. Also, in test [2] (not further tested), the ED50 is > 2.5 mg/kg.

In the case of `COCCc1ccc(-c2c(C3CC3)nc3c(-c4ccncc4)cc(C)nn23)cn1` [compound 56, 2-cyclopropyl-3-[6-(2-methoxyethyl)-3-pyridinyl]-6-methyl-8-(4-pyridinyl)-imidazo[1,2-b]pyridazine], the IC50 in test [1] was 51.3 nM. Also, in test [2] (not further tested), the ED50 is > 2.5 mg/kg.

`Cc1ccc(-c2c(C)nc3c(N4CCOCC4)ccnn23)cn1` [compound 39, 2-methyl-3-(6-methyl-3-pyridinyl)-8-(4-morpholinyl)-imidazo[1,2-b]pyridazine]: in test [1], the IC50 is 70.8 nM. In addition, the ED50 in test [2] (not further tested) is > 2.5 mg/kg.

For the molecule `CCOCc1ccc(-c2c(C)nc3c(N4CCOCC4)ccnn23)cn1` [compound 17, 3-[6-(ethoxymethyl)-3-pyridinyl]-2-methyl-8-(4-morpholinyl)-imidazo[1,2-b]pyridazine], the IC50 in test [1] is 55 nM. Further, in test [2] (setting [3]), the ED50 is > 2.5 mg/kg.

Take `Cc1cc(N2CCOCC2)c2nc(C3CC3)c(-c3ccc(C4CCOCC4)nc3)n2n1` [compound 79, 2-cyclopropyl-6-methyl-8-(4-morpholinyl)-3-[6-(tetrahydro-2H-pyran-4-yl)-3-pyridinyl]-imidazo[1,2-b]pyridazine]: the IC50 in test [1] was 263 nM. Besides, the ED50 in test [2] (not further tested) was > 2.5 mg/kg.

For the molecule `Cc1nc2c(-c3ccncc3)cc(C3CC3)nn2c1-c1ccc(N2CCNCC2)nc1` [compound 99, 6-cyclopropyl-2-methyl-3-[6-(1-piperazinyl)-3-pyridinyl]-8-(4-pyridinyl)-imidazo[1,2-b]pyridazine], the IC50 in test [1] was 302 nM. The ED50 in test [2] (not further tested) is > 2.5 mg/kg.

Turning to `Cc1nc2c(N3CCOCC3)ccnn2c1-c1ccc(CCOC(C)C)nc1` [compound 76, 2-methyl-3-[6-[2-(1-methylethoxy)ethyl]-3-pyridinyl]-8-(4-morpholinyl)-imidazo[1,2-b]pyridazine], the IC50 in test [1] is 50.1 nM. Moreover, in test [2] (not further tested), the ED50 is > 2.5 mg/kg.

`COCCOc1ccc(-c2c(C)nc3c(-c4ccncc4)cc(C)nn23)cn1` [compound 49, 3-[6-(2-methoxyethoxy)-3-pyridinyl]-2,6-dimethyl-8-(4-pyridinyl)-imidazo[1,2-b]pyridazine]: the IC50 in test [1] is 209 nM. In test [2] (not further tested), the ED50 is > 2.5 mg/kg.

As to `c1cc(N2CCOCC2)c2ncc(-c3ccc(C4CCOCC4)nc3)n2n1` [compound 82, 8-(4-morpholinyl)-3-[6-(tetrahydro-2H-pyran-4-yl)-3-pyridinyl]-imidazo[1,2-b]pyridazine], the IC50 in test [1] was 145 nM. For the same molecule, the ED50 in test [2] (not further tested) was > 2.5 mg/kg.

As for `Cc1nc2c(N3CCOCC3)ccnn2c1-c1ccnc(N2CCCC2)c1` [compound 92, 2-methyl-8-(4-morpholinyl)-3-[2-(1-pyrrolidinyl)-4-pyridinyl]-imidazo[1,2-b]pyridazine], the IC50 in test [1] was 57.5 nM. The ED50 in test [2] (not further tested) was > 2.5 mg/kg.

Consider `Cc1nc2c(-c3ccncc3)cc(C3CC3)nn2c1-c1ccc(N2CCOCC2)nc1` [compound 58, 6-cyclopropyl-2-methyl-3-[6-(4-morpholinyl)-3-pyridinyl]-8-(4-pyridinyl)-imidazo[1,2-b]pyridazine], for which, in test [1], the IC50 was 186 nM. In addition, the ED50 in test [2] (not further tested) was > 2.5 mg/kg.

In the case of `CCc1ccc(-c2cnc3c(N4CCOCC4)ccnn23)cn1` [compound 109, 3-(6-ethyl-3-pyridinyl)-8-(4-morpholinyl)-imidazo[1,2-b]pyridazine], the IC50 in test [1] was 251 nM. The ED50 in test [2] (not further tested) was > 2.5 mg/kg.

Regarding `COCCc1ccc(-c2cnc3c(N4CCOCC4)ccnn23)cn1` [compound 11, 3-[6-(2-methoxyethyl)-3-pyridinyl]-8-(4-morpholinyl)-imidazo[1,2-b]pyridazine], the IC50 in test [1] is 195 nM. Further, the ED50 in test [2] (not further tested) is > 2.5 mg/kg.

Take `CCc1ccc(-c2c(C3CC3)nc3c(N4CCOCC4)ccnn23)cn1` [compound 106, 2-cyclopropyl-3-(6-ethyl-3-pyridinyl)-8-(4-morpholinyl)-imidazo[1,2-b]pyridazine]: the IC50 in test [1] is 66.1 nM. Besides, in test [2] (not further tested), the ED50 is > 2.5 mg/kg.

Take `CCc1ccc(-c2c(C)nc3c(N4CCOCC4)cc(C4CC4)nn23)cn1` [compound 107, 6-cyclopropyl-3-(6-ethyl-3-pyridinyl)-2-methyl-8-(4-morpholinyl)-imidazo[1,2-b]pyridazine]: in test [1], the IC50 was 269 nM. Besides, the ED50 in test [2] (not further tested) is > 2.5 mg/kg.

In the case of `COC(C)(C)Cc1ccc(-c2cnc3c(-c4ccncc4)ccnn23)cn1` [compound 60, 3-[6-(2-methoxy-2-methylpropyl)-3-pyridinyl]-8-(4-pyridinyl)-imidazo[1,2-b]pyridazine], the IC50 in test [1] was 191 nM. Moreover, the ED50 in test [2] (not further tested) was > 2.5 mg/kg.

On to `Cc1nc2c(N3CCOCC3)ccnn2c1-c1ccnc(N2CCNCC2)c1` [compound 103, 2-methyl-8-(4-morpholinyl)-3-[2-(1-piperazinyl)-4-pyridinyl]-imidazo[1,2-b]pyridazine], for which, in test [1], the IC50 was 257 nM. Further, the ED50 in test [2] (not further tested) was > 2.5 mg/kg.

For the molecule `COC(C)(C)Cn1cc(-c2c(C)nc3c(-c4ccncc4)ccnn23)cn1` [compound 123, 3-[1-(2-methoxy-2-methylpropyl)-1H-pyrazol-4-yl]-2-methyl-8-(4-pyridinyl)-imidazo[1,2-b]pyridazine], in test [1], the IC50 is 27.5 nM. The ED50 in test [2] (not further tested) was > 2.5 mg/kg.

Take `COC(C)(C)Cn1cc(-c2c(C3CC3)nc3c(N4CCOCC4)ccnn23)cn1` [compound 38, 2-cyclopropyl-3-[1-(2-methoxy-2-methylpropyl)-1H-pyrazol-4-yl]-8-(4-morpholinyl)-imidazo[1,2-b]pyridazine]: the IC50 in test [1] is 28.8 nM. In test [2] (not further tested), the ED50 is > 2.5 mg/kg.

Turning to `COCCc1ccc(-c2c(C)nc3c(-c4ccncc4)cc(C4CC4)nn23)cn1` [compound 14, 6-cyclopropyl-3-[6-(2-methoxyethyl)-3-pyridinyl]-2-methyl-8-(4-pyridinyl)-imidazo[1,2-b]pyridazine], the IC50 in test [1] was 120 nM. Moreover, the ED50 in test [2] (not further tested) was > 2.5 mg/kg.

As for `CCc1ccc(-c2c(C)nc3c(-c4ccncc4)cc(C)nn23)cn1` [compound 88, 3-(6-ethyl-3-pyridinyl)-2,6-dimethyl-8-(4-pyridinyl)-imidazo[1,2-b]pyridazine], the IC50 in test [1] was 115 nM. In addition, in test [2] (not further tested), the ED50 was > 2.5 mg/kg.

As to `CO[C@H]1CCN(c2ccc(-c3c(C)nc4c(N5CCOCC5)ccnn34)cn2)C1` [compound 113, 3-[6-[(3S)-3-methoxy-1-pyrrolidinyl]-3-pyridinyl]-2-methyl-8-(4-morpholinyl)-imidazo[1,2-b]pyridazine], the IC50 in test [1] was 158 nM. Further, the ED50 in test [2] (not further tested) was > 2.5 mg/kg.

In the case of `COC(C)(C)Cc1ccc(-c2c(C)nc3c(N4CCOCC4)cc(C)nn23)cn1` [compound 47, 3-[6-(2-methoxy-2-methylpropyl)-3-pyridinyl]-2,6-dimethyl-8-(4-morpholinyl)-imidazo[1,2-b]pyridazine], the IC50 in test [1] is 91.2 nM. In addition, the 50% effective dose (ED50) in test [2] (not further tested) was > 2.5 mg/kg.

Consider `COCCn1cc(-c2c(C(F)(F)F)nc3c(N4CCOCC4)ccnn23)cn1` [compound 139, 3-[1-(2-methoxyethyl)-1H-pyrazol-4-yl]-8-(4-morpholinyl)-2-(trifluoromethyl)-imidazo[1,2-b]pyridazine], for which, in test [1], the IC50 is 69.2 nM. The ED50 in test [2] (setting [3]) was > 2.5 mg/kg.
